Values quoted from earlier work in patent US11266662B2, “Ganaxolone for use in prophylaxis and treatment of postpartum depression” (Marinus Pharmaceuticals, Inc., priority 2018, dated 2022).

Test system: patients
Details: 60 μg and 90 μg brexanolone dose regimens, IV infusion; cited from earlier work

SMILES: CC(=O)[C@H]1CC[C@H]2[C@@H]3CC[C@H]4C[C@H](O)CC[C@]4(C)[C@H]3CC[C@]12C [brexanolone]
- Patients with abrupt loss of consciousness, syncope or presyncope: about 4%
